Data published in patent publication US11919901B2 (Syndax Pharmaceuticals, Inc., priority 2021, dated 2024).

Tested on: MV4-11 cells
Test: Cell proliferation assay MV4;11 (CellTiter-Glo, 72 hours)
Assay type: cell-based
Conditions: Homo sapiens; MV4;11 leukemia cell line, 72 hours; read-out: MV4; 11 IC50
Method: Compounds were evaluated for its capacity to inhibit the proliferation of the MLLr leukemia cell line MV4-11 that harbors an MLL1-AF4 fusion protein. MV4-11 cells were cultured for 72 hours with limiting dilutions of compounds and viability was measured using CellTiter-Glo.
Compounds were dissolved to obtain as 10 mM solution in DMSO. The stock was diluted 1:5 to the top concentration of 2 mM in 100% DMSO. For IC50 determination, serial 1:3.16 dilutions were prepared in 100% DMSO by diluting 20 μL into 43.5 μL of DMSO for 8 concentrations. Each prepared DMSO solution were further diluted 1:500 in the cell culture media to obtain the 2× dosing solutions. The final concentrations of tested compounds in the cell culture media ranged from 0.632 nM to 2000 nM.
MV4-11 cells were cultured in IMDM with 10% FBS and 1× Penicillin-Streptomycin at 5% CO2 and 37° C. A cell suspension was prepared containing 15,000 cells/ml in the culture medium and 100 μL of this suspension was added per well to a 96-well cell culture plate. Then, 100 μL of 2× dosing media containing test compounds were added bringing the total volume to 200 μL. These cells were cultured for 72 hours at 37° C. and 5% CO2 in a humidified incubator.
After 72 hours, the cultured cells were mixed and 100p L was transferred to a 96-well black plate. Cell Titer Glo (100 μl) was then added to this plate. The plate was mixed with shaking for 15 mins at RT, the luminescence was then measured using Tecan Spark 20M spectrophotometer. Cell Viability (%) was determined by RLU of test/RLU average vehicle control*100 and % max inhibition was determined by 100−(% cell viability remaining at the top concentration of compound).

CCCS(=O)(=O)N[C@@H]1CC[C@@H](CN2CCC3(CC2)CN(c2ncncc2Oc2ccc(F)cc2C(=O)N(CC)C(C)C)C3)OC1 [Example 9, N-Ethyl-5-fluoro-N-isopropyl-2-((4-(7-(((2S,5R)-5-(propylsulfonamido)tetrahydro-2H-pyran-2-yl)methyl)-2,7-diazaspiro[3.5]nonan-2-yl)pyrimidin-5-yl)oxy)benzamide]
IC50: < 100 nM

CCN(C(=O)c1cc(F)ccc1Oc1cncnc1N1CC2(CCN(C[C@@H]3CC[C@@H](NC(=O)OC(C)(C)C)CO3)CC2)C1)C(C)C [Example 11, tert-Butyl ((3R,6S)-6-((2-(5-(2-(ethyl(isopropyl)carbamoyl)-4-fluorophenoxy)pyrimidin-4-yl)-2,7-diazaspiro[3.5]nonan-7-yl)methyl)tetrahydro-2H-pyran-3-yl)carbamate]
IC50: < 100 nM

CC(C)N(C(=O)c1cc(F)ccc1Oc1cncnc1N1CC2(CCN(C[C@@H]3CC[C@@H](NS(C)(=O)=O)CO3)CC2)C1)C(C)C [Example 12, 5-Fluoro-N,N-diisopropyl-2-((4-(7-(((2S,5R)-5-(methylsulfonamido)tetrahydro-2H-pyran-2-yl)methyl)-2,7-diazaspiro[3.5]nonan-2-yl)pyrimidin-5-yl)oxy)benzamide]
IC50: < 100 nM

CCS(=O)(=O)N[C@@H]1CC[C@@H](CN2CCC3(CC2)CN(c2ncncc2Oc2ccc(F)cc2C(=O)N(C(C)C)C(C)C)C3)OC1 [Example 13, 2-((4-(7-(((2S,5R)-5-(Ethylsulfonamido)tetrahydro-2H-pyran-2-yl)methyl)-2,7-diazaspiro[3.5]nonan-2-yl)pyrimidin-5-yl)oxy)-5-fluoro-N,N-diisopropylbenzamide]
IC50: < 100 nM

CC(C)N(C(=O)c1cc(F)ccc1Oc1cncnc1N1CC2(CCN(C[C@@H]3CC[C@@H](NS(=O)(=O)C(C)C)CO3)CC2)C1)C(C)C [Example 14, 5-Fluoro-N,N-diisopropyl-2-((4-(7-(((2S,5R)-5-((1-methylethyl)sulfonamido)tetrahydro-2H-pyran-2-yl)methyl)-2,7-diazaspiro[3.5]nonan-2-yl)pyrimidin-5-yl)oxy)benzamide]
IC50: < 100 nM

CC(C)N(C(=O)c1cc(F)ccc1Oc1cncnc1N1CC2(CCN(C[C@@H]3CC[C@@H](NS(=O)(=O)C4CC4)CO3)CC2)C1)C(C)C [Example 15, 2-((4-(7-(((2S,5R)-5-(Cyclopropanesulfonamido)tetrahydro-2H-pyran-2-yl)methyl)-2,7-diazaspiro[3.5]nonan-2-yl)pyrimidin-5-yl)oxy)-5-fluoro-N,N-diisopropylbenzamide]
IC50: < 100 nM

CC(C)N(C(=O)c1cc(F)ccc1Oc1cncnc1N1CC2(CCN(C[C@@H]3CC[C@@H](NS(=O)(=O)C4COC4)CO3)CC2)C1)C(C)C [Example 16, 5-Fluoro-N,N-diisopropyl-2-((4-(7-(((2S,5R)-5-(oxetane-3-sulfonamido)tetrahydro-2H-pyran-2-yl)methyl)-2,7-diazaspiro[3.5]nonan-2-yl)pyrimidin-5-yl)oxy)benzamide]
IC50: < 100 nM

CC(C)N(C(=O)c1cc(F)ccc1Oc1cncnc1N1CC2(CCN(C[C@@H]3CC[C@@H](NC(=O)OC(C)(C)C)CO3)CC2)C1)C1CC1 [Example 17, tert-Butyl ((3R,6S)-6-((2-(5-(2-(cyclopropyl(isopropyl)carbamoyl)-4-fluorophenoxy)pyrimidin-4-yl)-2,7-diazaspiro[3.5]nonan-7-yl)methyl)tetrahydro-2H-pyran-3-yl)carbamate]
IC50: < 100 nM

CCS(=O)(=O)N[C@@H]1CC[C@@H](CN2CCC3(CC2)CN(c2ncncc2Oc2ccc(F)cc2C(=O)N(C(C)C)C2CC2)C3)OC1 [Example 19, N-Cyclopropyl-2-((4-(7-(((2S,5R)-5-(ethylsulfonamido)tetrahydro-2H-pyran-2-yl)methyl)-2,7-diazaspiro[3.5]nonan-2-yl)pyrimidin-5-yl)oxy)-5-fluoro-N-isopropylbenzamide]
IC50: < 100 nM

CC(C)N(C(=O)c1cc(F)ccc1Oc1cncnc1N1CC2(CCN(C[C@@H]3CC[C@@H](NS(=O)(=O)C(C)C)CO3)CC2)C1)C1CC1 [Example 20, N-Cyclopropyl-5-fluoro-N-isopropyl-2-((4-(7-(((2S,5R)-5-((1-methylethyl)sulfonamido)tetrahydro-2H-pyran-2-yl)methyl)-2,7-diazaspiro[3.5]nonan-2-yl)pyrimidin-5-yl)oxy)benzamide]
IC50: < 100 nM

CC(C)N(C(=O)c1cc(F)ccc1Oc1cncnc1N1CC2(CCN(C[C@@H]3CC[C@@H](NS(=O)(=O)C4CC4)CO3)CC2)C1)C1CC1 [Example 21, 2-((4-(7-(((2S,5R)-5-(Cyclopropanesulfonamido)tetrahydro-2H-pyran-2-yl)methyl)-2,7-diazaspiro[3.5]nonan-2-yl)pyrimidin-5-yl)oxy)-N-cyclopropyl-5-fluoro-N-isopropylbenzamide]
IC50: < 100 nM

CC(C)N(C(=O)c1cc(F)ccc1Oc1cncnc1N1CC2(CCN(C[C@@H]3CC[C@@H](NS(=O)(=O)C4COC4)CO3)CC2)C1)C1CC1 [Example 22, N-Cyclopropyl-5-fluoro-N-isopropyl-2-((4-(7-(((2S,5R)-5-(oxetane-3-sulfonamido)tetrahydro-2H-pyran-2-yl)methyl)-2,7-diazaspiro[3.5]nonan-2-yl)pyrimidin-5-yl)oxy)benzamide]
IC50: 100 to 1000 nM

C[C@@H]1COC[C@H](C)N1C(=O)c1cc(F)ccc1Oc1cncnc1N1CC2(CCN(C[C@@H]3CC[C@@H](NS(C)(=O)=O)CO3)CC2)C1 [Example 23, N-((3R,6S)-6-((2-(5-(2-((3S,5R)-3,5-Dimethylmorpholine-4-carbonyl)-4-fluorophenoxy)pyrimidin-4-yl)-2,7-diazaspiro[3.5]nonan-7-yl)methyl)tetrahydro-2H-pyran-3-yl)methanesulfonamide]
IC50: 100 to 1000 nM

CCS(=O)(=O)N[C@@H]1CC[C@@H](CN2CCC3(CC2)CN(c2ncncc2Oc2ccc(F)cc2C(=O)N2[C@H](C)COC[C@@H]2C)C3)OC1 [Example 24, N-((3R,6S)-6-((2-(5-(2-((3S,5R)-3,5-dimethylmorpholine-4-carbonyl)-4-fluorophenoxy)pyrimidin-4-yl)-2,7-diazaspiro[3.5]nonan-7-yl)methyl)tetrahydro-2H-pyran-3-yl)ethanesulfonamide]
IC50: < 100 nM

CC(C)S(=O)(=O)N[C@@H]1CC[C@@H](CN2CCC3(CC2)CN(c2ncncc2Oc2ccc(F)cc2C(=O)N2[C@H](C)COC[C@@H]2C)C3)OC1 [Example 25, N-((3R,6S)-6-((2-(5-(2-((3S,5R)-3,5-Dimethylmorpholine-4-carbonyl)-4-fluorophenoxy)pyrimidin-4-yl)-2,7-diazaspiro[3.5]nonan-7-yl)methyl)tetrahydro-2H-pyran-3-yl)propane-2-sulfonamide]
IC50: < 100 nM

C[C@@H]1COC[C@H](C)N1C(=O)c1cc(F)ccc1Oc1cncnc1N1CC2(CCN(C[C@@H]3CC[C@@H](NS(=O)(=O)C4CC4)CO3)CC2)C1 [Example 26, N-((3R,6S)-6-((2-(5-(2-((3S,5R)-3,5-Dimethylmorpholine-4-carbonyl)-4-fluorophenoxy)pyrimidin-4-yl)-2,7-diazaspiro[3.5]nonan-7-yl)methyl)tetrahydro-2H-pyran-3-yl)cyclopropanesulfonamide]
IC50: < 100 nM

C[C@@H]1COC[C@H](C)N1C(=O)c1cc(F)ccc1Oc1cncnc1N1CC2(CCN(C[C@@H]3CC[C@@H](NS(=O)(=O)C4COC4)CO3)CC2)C1 [Example 27, N-((3R,6S)-6-((2-(5-(2-((3S,5R)-3,5-Dimethylmorpholine-4-carbonyl)-4-fluorophenoxy)pyrimidin-4-yl)-2,7-diazaspiro[3.5]nonan-7-yl)methyl)tetrahydro-2H-pyran-3-yl)oxetane-3-sulfonamide]
IC50: 100 to 1000 nM

C[C@@H]1COC[C@@H](C)N1C(=O)c1cc(F)ccc1Oc1cncnc1N1CC2(CCN(C[C@@H]3CC[C@@H](NS(C)(=O)=O)CO3)CC2)C1 [Example 28, N-((3R,6S)-6-((2-(5-(2-((3R,5R)-3,5-Dimethylmorpholine-4-carbonyl)-4-fluorophenoxy)pyrimidin-4-yl)-2,7-diazaspiro[3.5]nonan-7-yl)methyl)tetrahydro-2H-pyran-3-yl)methanesulfonamide]
IC50: 100 to 1000 nM

CCS(=O)(=O)N[C@@H]1CC[C@@H](CN2CCC3(CC2)CN(c2ncncc2Oc2ccc(F)cc2C(=O)N2[C@H](C)COC[C@H]2C)C3)OC1 [Example 29, N-((3R,6S)-6-((2-(5-(2-((3R,5R)-3,5-Dimethylmorpholine-4-carbonyl)-4-fluorophenoxy)pyrimidin-4-yl)-2,7-diazaspiro[3.5]nonan-7-yl)methyl)tetrahydro-2H-pyran-3-yl)ethanesulfonamide]
IC50: < 100 nM

CC(C)S(=O)(=O)N[C@@H]1CC[C@@H](CN2CCC3(CC2)CN(c2ncncc2Oc2ccc(F)cc2C(=O)N2[C@H](C)COC[C@H]2C)C3)OC1 [Example 30, N-((3R,6S)-6-((2-(5-(2-((3R,5R)-3,5-Dimethylmorpholine-4-carbonyl)-4-fluorophenoxy)pyrimidin-4-yl)-2,7-diazaspiro[3.5]nonan-7-yl)methyl)tetrahydro-2H-pyran-3-yl)propane-2-sulfonamide]
IC50: < 100 nM
